Values of other authors as cited in US7579360B2, “Triazolopyridine 11-beta hydroxysteroid dehydrogenase type I inhibitors” (Bristol-Myers Squibb Company, priority 2005, dated 2009).

Biological target: T1, 11beta-HSD1 (Homo sapiens, UniProt P28845)
T1 construct: host or cells: patients with type 2 diabetes (liver, in vivo)
Settings: mildly overweight individuals with type 2 diabetes, seven days, versus placebo

T1 sequence (P28845 whole entry): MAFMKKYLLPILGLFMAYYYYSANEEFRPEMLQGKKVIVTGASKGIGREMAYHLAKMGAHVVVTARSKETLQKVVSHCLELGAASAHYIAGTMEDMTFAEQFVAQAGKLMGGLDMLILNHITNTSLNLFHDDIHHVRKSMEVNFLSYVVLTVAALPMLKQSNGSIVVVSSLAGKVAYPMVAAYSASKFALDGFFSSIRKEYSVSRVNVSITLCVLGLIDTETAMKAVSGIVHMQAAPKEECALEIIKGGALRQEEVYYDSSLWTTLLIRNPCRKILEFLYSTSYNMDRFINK

hepatic glucose production: decrease
Structure (SMILES): CC1(C)[C@@H](OC(=O)CCC(=O)O)CC[C@]2(C)[C@H]3C(=O)C=C4[C@@H]5C[C@@](C)(C(=O)O)CC[C@]5(C)CC[C@@]4(C)[C@]3(C)CC[C@@H]12 [carbenoxolone]
